Consider five molecules from ChEMBL document CHEMBL1201862, “PubChem BioAssay data set” (2004).

Some test systems named below: A498; A549; SNB-19; Malme-3M; TK-10; HOP-92; IGROV-1; SN12C; SK-OV-3; ACHN; M14; SK-MEL-5; OVCAR-3; SNB-75; CCRF-CEM; UACC-257; NCI-H522; EKVX; SK-MEL-28; MDA-MB-435.
What all share (assay): growth of human tumour cells (NCI), 48 h

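Briefly, cells in 96-well plates were exposed to five compound concentrations for 48 h, and endpoints were estimated by linear interpolation. Abbreviation: GI50, concentration required for 50% inhibition of growth.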 The source made the active and inactive calls. Cut-off read from the data, not from the text of the source: active = GI50 up to about 1.1 µM and inactive = higher.

Consider `Cn1c(=S)c2nc(SCCCc3ccccc3)[nH]c2n(C)c1=O`, for which the GI50 in the test with A498 was 18.4 µM (inactive); in the test on A549, 13.7 µM (inactive); in the test on SNB-19, 16.6 µM (inactive); in the test on Malme-3M, 62.1 µM (inactive); in the test with TK-10, 17.4 µM (inactive); in the test on HOP-92, 78.3 µM (inactive). For the same molecule, the GI50 in the test on IGROV-1 is 35.6 µM (inactive); with SN12C it was 26.5 µM (inactive); with SK-OV-3, 42.2 µM (inactive); with ACHN, 27.2 µM (inactive); in the test with M14, 17.6 µM (inactive); in the test on SK-MEL-5, 6.67 µM (inactive). Further, the GI50 in the test with OVCAR-3 is 20.9 µM (inactive); with SNB-75, 22.6 µM (inactive); in the test on CCRF-CEM it was 6.59 µM (inactive); with UACC-257 it was 8.24 µM (inactive); in the test on NCI-H522, 4.33 µM (inactive); in the test on EKVX it was 13.7 µM (inactive). Further, the GI50 in the test on SK-MEL-28 was 46.6 µM (inactive); with MDA-MB-435, 23.2 µM (inactive).
Turning to `Cc1cc(C)c(O)c(Cc2cccc(Cc3cc(C)cc(C)c3O)c2O)c1`, the GI50 in the test with A498, in the test on A549, with SNB-19, in the test with Malme-3M, in the test on TK-10 and in the test on HOP-92 was > 100 µM (inactive) throughout. For the same molecule, the GI50 in the test with IGROV-1, in the test with SN12C, in the test with SK-OV-3, in the test with ACHN, in the test with M14 and in the test on SK-MEL-5 was > 100 µM (inactive) each time. The GI50 was > 100 µM (inactive) in the test with OVCAR-3; > 100 µM (inactive) in the test on SNB-75; 35.5 µM (inactive) with CCRF-CEM; > 100 µM (inactive) with UACC-257; > 100 µM (inactive) in the test on NCI-H522; > 100 µM (inactive) with EKVX. Besides, the GI50 with SK-MEL-28 and in the test with MDA-MB-435 was > 100 µM (inactive) each time.
For the molecule `Cc1cc2nc(C=C(C(F)(F)F)C(F)(F)F)sc2cc1C`, the GI50 with A498 is 4.2 µM (inactive); with A549, 4.02 µM (inactive); in the test on SNB-19 it was 3.44 µM (inactive); in the test with Malme-3M it was 1.44 µM (inactive); with TK-10, 2.34 µM (inactive); in the test with HOP-92, 4.66 µM (inactive). Moreover, the GI50 with IGROV-1 is 2.21 µM (inactive); with SN12C, 0.501 µM (active); in the test with SK-OV-3, 7.62 µM (inactive); in the test on ACHN, 2.99 µM (inactive); in the test with M14, 0.782 µM (active); with SK-MEL-5, 2.49 µM (inactive). Also, the GI50 with OVCAR-3 was 1.16 µM (inactive); in the test with SNB-75 it was 1.16 µM (inactive); in the test on CCRF-CEM, 0.0333 µM (active); in the test with UACC-257, 4.55 µM (inactive); with NCI-H522 it was 0.31 µM (active); with EKVX, 2.15 µM (inactive). The GI50 in the test with SK-MEL-28 was 3.01 µM (inactive); with MDA-MB-435, 1.21 µM (inactive).
For `COc1ccc(/C=C2\N/C(=N/N)N=C2Cl)cc1`, the GI50 with A498, in the test with A549, with SNB-19, in the test on Malme-3M, in the test on TK-10 and in the test with HOP-92 was > 100 µM (inactive) each time. Besides, the GI50 in the test on IGROV-1, in the test with SN12C, in the test on SK-OV-3, in the test with ACHN, in the test on M14 and in the test with SK-MEL-5 was > 100 µM (inactive) each time. The GI50 in the test on OVCAR-3, with SNB-75, in the test on CCRF-CEM, with UACC-257, with NCI-H522 and with EKVX was > 100 µM (inactive) in each case. Besides, the GI50 in the test with SK-MEL-28 and in the test on MDA-MB-435 was > 100 µM (inactive) each time.
Consider `C[C@@H]1C[C@H](O)[C@]2(O)O[C@@H]3C[C@@]4(C=O)[C@@H](CC[C@@H]5[C@@H]4CC[C@]4(C)[C@@H](C6=CC(=O)OC6)CC[C@]54O)C[C@H]3O[C@@H]2O1` [CALOTROPIN], for which the GI50 in the test with A498 was 0.0531 µM (active); with A549 it was 0.014 µM (active); with SNB-19 it was 0.083 µM (active); with Malme-3M, 0.0167 µM (active); with TK-10, 0.0254 µM (active); in the test with HOP-92, 0.0545 µM (active). For the same molecule, the GI50 with IGROV-1 is 0.0209 µM (active); with SN12C it was 0.0202 µM (active); in the test with SK-OV-3 it was 0.0351 µM (active); in the test with ACHN it was 0.0188 µM (active); with M14, 0.065 µM (active); in the test on SK-MEL-5, 0.0278 µM (active). The GI50 was 0.0182 µM (active) in the test with OVCAR-3; 0.0689 µM (active) in the test with SNB-75; 0.0175 µM (active) with CCRF-CEM; 0.0592 µM (active) in the test with UACC-257; 0.0162 µM (active) in the test with NCI-H522; 0.0178 µM (active) with EKVX. Also, the values for the GI50 with SK-MEL-28 and with MDA-MB-435 were 0.112 µM (active) and 0.0675 µM (active), respectively.
